Test results as given in US10696674B2, “Spirolactams as inhibitors of ROCK” (BRISTOL-MYERS SQUIBB COMPANY, priority 2016, dated 2020).

Molecular target: ROCK2 (Homo sapiens, UniProt O75116)
Assay: ROCK2 assay (Caliper LABCHIP peptide phosphorylation)
Format: biochemical
Conditions: 5 μM ATP, 1.5 μM peptide substrate
Procedure: The effectiveness of compounds of the present invention as ROCK inhibitors can be determined in a 30 μL assay containing 20 mM HEPES, pH 7.5, 20 mM MgCl2, 0.015% Brij-35, 4 mM DTT, 5 μM ATP and 1.5 μM peptide substrate (FITC-AHA-AKRRRLSSLRA-OH) (SEQ ID NO.1). Compounds were dissolved in DMSO so that the final concentration of DMSO was <2%, and the reaction was initiated with Rho kinase variants. After incubation, the reaction was terminated by the addition of EDTA and the phosphorylated and non-phosphorylated peptides separated using a LABCHIP® 3000 Reader (Caliper Life Sciences). […] Compounds were tested in dose-response format, and the inhibition of kinase activity was calculated at each concentration of compound. The inhibition data were fit using a curve-fitting program to determine the IC50; i.e., the concentration of compound required to inhibit 50% of kinase activity.
Representative Examples were tested in the ROCK2 assay described above and found having ROCK2 inhibitory activity. The ranges of the ROCK2 IC50 values are as follows: ROCK2 IC50: ++++ (<3 nM) +++ (3-30 nM) ++ (30-300 nM) + (300-2000 nM)

Sequence of ROCK2 (O75116 whole entry, species assumed): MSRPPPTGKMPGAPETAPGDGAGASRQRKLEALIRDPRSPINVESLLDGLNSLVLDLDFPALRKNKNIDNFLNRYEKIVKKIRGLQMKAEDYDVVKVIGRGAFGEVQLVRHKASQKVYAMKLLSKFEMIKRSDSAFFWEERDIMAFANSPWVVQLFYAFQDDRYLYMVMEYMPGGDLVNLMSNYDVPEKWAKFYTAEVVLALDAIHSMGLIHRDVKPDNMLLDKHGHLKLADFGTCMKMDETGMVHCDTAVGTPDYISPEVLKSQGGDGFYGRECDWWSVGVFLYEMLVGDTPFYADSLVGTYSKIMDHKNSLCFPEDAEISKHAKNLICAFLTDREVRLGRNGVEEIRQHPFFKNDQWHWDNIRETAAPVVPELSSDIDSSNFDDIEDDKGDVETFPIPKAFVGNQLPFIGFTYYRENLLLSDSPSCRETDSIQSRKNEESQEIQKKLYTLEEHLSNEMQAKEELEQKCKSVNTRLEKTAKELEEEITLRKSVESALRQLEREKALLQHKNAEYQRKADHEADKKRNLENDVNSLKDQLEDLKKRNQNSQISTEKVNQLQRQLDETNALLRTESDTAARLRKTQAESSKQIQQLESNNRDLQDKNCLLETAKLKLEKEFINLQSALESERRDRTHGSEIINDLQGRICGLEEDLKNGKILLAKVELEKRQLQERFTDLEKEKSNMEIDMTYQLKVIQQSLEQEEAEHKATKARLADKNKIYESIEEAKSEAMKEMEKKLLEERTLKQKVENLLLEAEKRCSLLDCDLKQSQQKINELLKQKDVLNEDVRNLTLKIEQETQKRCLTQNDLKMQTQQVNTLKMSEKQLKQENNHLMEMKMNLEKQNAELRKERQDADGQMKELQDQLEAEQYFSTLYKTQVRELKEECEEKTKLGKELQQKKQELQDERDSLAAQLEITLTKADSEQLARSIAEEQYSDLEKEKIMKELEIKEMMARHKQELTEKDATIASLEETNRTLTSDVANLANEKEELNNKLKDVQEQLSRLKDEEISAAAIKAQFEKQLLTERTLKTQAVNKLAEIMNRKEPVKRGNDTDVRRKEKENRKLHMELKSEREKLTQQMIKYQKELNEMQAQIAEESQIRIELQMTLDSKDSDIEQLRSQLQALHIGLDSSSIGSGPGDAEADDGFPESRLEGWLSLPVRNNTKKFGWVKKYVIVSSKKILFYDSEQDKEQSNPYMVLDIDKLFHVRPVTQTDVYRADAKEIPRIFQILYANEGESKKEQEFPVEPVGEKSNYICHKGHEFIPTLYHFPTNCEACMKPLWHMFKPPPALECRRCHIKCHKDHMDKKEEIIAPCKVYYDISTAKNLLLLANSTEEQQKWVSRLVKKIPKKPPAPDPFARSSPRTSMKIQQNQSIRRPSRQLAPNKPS

Row | Structure (SMILES) | IC50 [µM]
1 | Cc1cccc2c1CC1(CCN(c3ccc(-c4cn[nH]c4)cc3)C1=O)N2 (stereo not drawn) [Example 27, 1′-(4-(1H-Pyrazol-4-yl)phenyl)-4-methylspiro[indoline-2,3′-pyrrolidin]-2′-one] | 0.003 to 0.03
2 | O=C1N(c2ccc(-c3cn[nH]c3)cc2)CCC12Cc1ncccc1N2 (stereo not drawn) [Example 28, 1-(4-(1H-Pyrazol-4-yl)phenyl)-1′,3′-dihydrospiro[pyrrolidine-3,2′-pyrrolo[3,2-b]pyridin]-2-one] | 0.03 to 0.3
3 | COc1cc(N2CCC3(Cc4ccccc4C3)C2=O)ccc1-c1cn[nH]c1 [Example 35, 1′-(3-Methoxy-4-(1H-pyrazol-4-yl)phenyl)-1,3-dihydrospiro[indene-2,3′-pyrrolidin]-2′-one] | 0.003 to 0.03
4 | CC(C)(O)COc1ccc2c(c1)NC1(CCN(c3ccc(-c4cn[nH]c4)cc3)C1=O)C2 (stereo not drawn) [Example 36] | 0.03 to 0.3
5 | O=C1N(c2ccc(-c3cn[nH]c3)cc2)CCC12Cc1ccc(O)cc1N2 (stereo not drawn) [Example 37] | < 0.003
6 | O=C1N(c2ccc(-c3cn[nH]c3)cn2)CCC12Cc1ccccc1N2 (stereo not drawn) [Example 41, 1′-(5-(1H-Pyrazol-4-yl)pyridin-2-yl)spiro[indoline-2,3′-pyrrolidin]-2′-one] | 0.003 to 0.03
7 | O=C1N(c2cnc(-c3cn[nH]c3)cn2)CCC12Cc1ccccc1N2 (stereo not drawn) [Example 44, 1′-(5-(1H-Pyrazol-4-yl)pyrazin-2-yl)spiro[indoline-2,3′-pyrrolidin]-2′-one] | 0.003 to 0.03
8 | CC1(C)c2ccccc2NC12CCN(c1ccc(-c3cn[nH]c3)cc1)C2=O (stereo not drawn) [Example 51, 1′-(4-(1H-pyrazol-4-yl)phenyl)-3,3-dimethylspiro[indoline-2,3′-pyrrolidin]-2′-one] | < 0.003
9 | O=C1N(c2ccc(-c3cn[nH]c3)cc2)CC(CO)C12Cc1ccccc1N2 (stereo not drawn) [Example 52, 1′-(4-(1H-pyrazol-4-yl)phenyl)-4′-(hydroxymethyl)spiro[indoline-2,3′-pyrrolidin]-2′-one] | < 0.003
10 | NCC1CN(c2ccc(-c3cn[nH]c3)cc2)C(=O)C12Cc1ccccc1N2 (stereo not drawn) [Example 53, 1′-(4-(1H-pyrazol-4-yl)phenyl)-4′-(aminomethyl)spiro[indoline-2,3′-pyrrolidin]-2′-one] | < 0.003
11 | O=C1N(c2ccc(-c3cn[nH]c3)cc2)CC(CO)[C@@]12Cc1ccccc1N2 (stereo partly drawn) [Example 54, (2S)-1′-(4-(1H-pyrazol-4-yl)phenyl)-4′-(hydroxymethyl)spiro[indoline-2,3′-pyrrolidin]-2′-one] | < 0.003

Second part, the molecule after the results:

Row | IC50 [µM] | Structure (SMILES)
12 | < 0.003 | COc1ccc2c(c1)CC1(CCN(c3ccc(-c4cn[nH]c4)cc3)C1=O)O2 (stereo not drawn) [Example 24, 1′-(4-(1H-Pyrazol-4-yl)phenyl)-5-methoxy-3H-spiro[benzofuran-2,3′-pyrrolidin]-2′-one]
13 | 0.003 to 0.03 | O=C1N(c2ccc(-c3ccncc3)cc2)CCC12Cc1ccccc1N2 (stereo not drawn) [Example 45, 1′-(4-(Pyridin-4-yl)phenyl)spiro[indoline-2,3′-pyrrolidin]-2′-one]
14 | 0.003 to 0.03 | O=C1N(c2ccc(-c3ccncc3)cc2)CCC12Cc1ccccc1O2 (stereo not drawn) [Example 46, 1′-(4-(Pyridin-4-yl)phenyl)-3H-spiro[benzofuran-2,3′-pyrrolidin]-2′-one]
15 | < 0.003 | O=C1N(c2ccc(-c3cn[nH]c3)cc2)CCC12CCc1ccccc1N2 (stereo not drawn) [Example 47, 1-(4-(1H-pyrazol-4-yl)phenyl)-3′,4′-dihydro-1 ^1H-spiro[pyrrolidine-3,2′-quinolin]-2-one]
16 | 0.03 to 0.3 | O=C1N(c2ccc(-c3cn[nH]c3)cc2)CCC12Cc1ccccc1CN2 (stereo not drawn) [Example 48, 1′-(4-(1H-pyrazol-4-yl)phenyl)-1,4-dihydro-2H-spiro[isoquinoline-3,3′-pyrrolidin]-2′-one]
17 | 0.003 to 0.03 | O=C1N(c2ccc(-c3ccnc4[nH]ccc34)cc2)CCC12Cc1ccccc1CN2 (stereo not drawn) [Example 49, 1′-(4-(1H-pyrrolo[2,3-b]pyridin-4-yl)phenyl)-1,4-dihydro-2H-spiro[isoquinoline-3,3′-pyrrolidin]-2′-one]
18 | 0.03 to 0.3 | O=C1N(c2ccc(-c3cn[nH]c3)cc2)CCC12CCc1ccccc1O2 (stereo not drawn) [Example 50, 1′-(4-(1H-pyrazol-4-yl)phenyl)spiro[chromane-2,3′-pyrrolidin]-2′-one]
19 | 0.03 to 0.3 | O=C1N(c2ccc(-c3cn[nH]c3)cc2)CC(CO)[C@]12Cc1ccccc1N2 (stereo partly drawn) [Example 55, (2R)-1′-(4-(1H-pyrazol-4-yl)phenyl)-4′-(hydroxymethyl)spiro[indoline-2,3′-pyrrolidin]-2′-one]
20 | < 0.003 | O=C1N(c2ccc(-c3cn[nH]c3)cc2)CC(CO)C12CCc1ccccc1N2 (stereo not drawn) [Example 56, 1-(4-(1H-pyrazol-4-yl)phenyl)-4-(hydroxymethyl)-3′,4′-dihydro-1′H-spiro[pyrrolidine-3,2′-quinolin]-2-one]

System: ROCK
Assay: not given
Conditions: control rats; cited from earlier work

Row | Structure (SMILES) | blood pressure
21 | C[C@@H](N)[C@H]1CC[C@H](C(=O)Nc2ccncc2)CC1 [Example Y-27632, Y-27632] | only a minor effect on blood pressure

Same assay, conditions: spontaneously hypertensive rat, renal hypertensive rat and deoxycortisone acetate salt hypertensive rat models; cited from earlier work

Row | Structure (SMILES) | blood pressure
22 | C[C@@H](N)[C@H]1CC[C@H](C(=O)Nc2ccncc2)CC1 [Example Y-27632, Y-27632] | significantly decrease blood pressure

System: ROCK
Assay: not given
Conditions: rats, balloon injury model; cited from earlier work

Row | Structure (SMILES) | neointimal formation
23 | C[C@@H](N)[C@H]1CC[C@H](C(=O)Nc2ccncc2)CC1 [Example Y-27632, Y-27632] | inhibited neointimal formation

System: ROCK
Assay: not given
Conditions: long term treatment; cited from earlier work

Row | Structure (SMILES) | coronary constrictive remodeling | coronary stenosis
24 | O=S(=O)(c1cccc2cnccc12)N1CCCNCC1 [fasudil] | promote a regression of coronary constrictive remodeling | progressively reduce coronary stenosis

System: ROCK
Assay: not given
Conditions: rat, in vivo; cited from earlier work

Row | Structure (SMILES) | infarct size and neurologic deficit
25 | O=S(=O)(c1cccc2cnccc12)N1CCCNCC1 [fasudil] | reduce both the infarct size and neurologic deficit

System: ROCK
Assay: not given
Conditions: rat, in vivo; cited from earlier work
Remark: another data set of the same source

Row | Structure (SMILES) | ventricular hypertrophy, fibrosis and function
26 | C[C@@H](N)[C@H]1CC[C@H](C(=O)Nc2ccncc2)CC1 [Example Y-27632, Y-27632] | improve ventricular hypertrophy, fibrosis and function
